Drawing on article PMC4687129, “Molecular characterization of a cathepsin F-like protease in Trichinella spiralis” (Parasites & Vectors, 2015), this text covers IC50 for one compound.

This assay deals with T1, TsCF1 (cathepsin F-like protease).
T1 construct: gene Tsp_02382
The experiment in a line: fluorescence endpoint assay, Z-Phe-Arg-AMC hydrolysis at pH […] min preincubation with inhibitor. Format: biochemical, Trichinella spiralis.

As a reminder, the IC50 is the concentration that gives 50% inhibition. A low value points to higher potency. Turning to `CC(C)C[C@H](NC(=O)[C@H]1O[C@@H]1C(=O)O)C(=O)NCCCCN=C(N)N` [E-64], the IC50 is 136 ± 16.9 nM.
